Data reported in BigSolDB 2.1.

Work on `O=C(O)Cc1c[nH]c2ccccc12` yielded a solubility (mole fraction) (in 1,4-dioxane, 288.15 K) of 2.06e-05, a solubility (mole fraction) (in 1,4-dioxane, 293.15 K) of 2.2e-05 and a solubility (mole fraction) (in 1,4-dioxane, 298.15 K) of 2.35e-05. It also gave a solubility (mole fraction) (in 1,4-dioxane, 303.15 K) of 2.51e-05, a solubility (mole fraction) (in 1,4-dioxane, 308.15 K) of 2.69e-05 and a solubility (mole fraction) (in 1,4-dioxane, 313.15 K) of 2.89e-05. For the same compound, the solubility (mole fraction) (in 1,4-dioxane, 318.15 K) was 3.12e-05, the solubility (mole fraction) (in 1,4-dioxane, 323.15 K) was 3.38e-05 and the solubility (mole fraction) (in DMF, 278.15 K) was 2.98e-05. For the same compound, the solubility (mole fraction) (in DMF, 283.15 K) was 3.12e-05, the solubility (mole fraction) (in DMF, 288.15 K) was 3.29e-05 and the solubility (mole fraction) (in DMF, 293.15 K) was 3.47e-05. It also gave a solubility (mole fraction) (in DMF, 298.15 K) of 3.67e-05, a solubility (mole fraction) (in DMF, 303.15 K) of 3.9e-05 and a solubility (mole fraction) (in DMF, 308.15 K) of 4.16e-05. The solubility (mole fraction) (in DMF, 313.15 K) was 4.45e-05, the solubility (mole fraction) (in DMF, 318.15 K) was 4.74e-05 and the solubility (mole fraction) (in DMF, 323.15 K) was 5.07e-05. For the same compound, the solubility (mole fraction) (in DMSO, 293.15 K) was 3.73e-05, the solubility (mole fraction) (in DMSO, 298.15 K) was 3.95e-05 and the solubility (mole fraction) (in DMSO, 303.15 K) was 4.2e-05. For the same compound, the solubility (mole fraction) (in DMSO, 308.15 K) was 4.45e-05, the solubility (mole fraction) (in DMSO, 313.15 K) was 4.77e-05 and the solubility (mole fraction) (in DMSO, 318.15 K) was 5.12e-05. It also gave a solubility (mole fraction) (in DMSO, 323.15 K) of 5.48e-05, a solubility (mole fraction) (in acetone, 278.15 K) of 2.49e-05 and a solubility (mole fraction) (in acetone, 283.15 K) of 2.6e-05. The solubility (mole fraction) (in acetone, 288.15 K) was 2.73e-05, the solubility (mole fraction) (in acetone, 293.15 K) was 2.89e-05 and the solubility (mole fraction) (in acetone, 298.15 K) was 3.07e-05. The solubility (mole fraction) (in acetone, 303.15 K) was 3.26e-05, the solubility (mole fraction) (in acetone, 308.15 K) was 3.49e-05 and the solubility (mole fraction) (in acetone, 313.15 K) was 3.73e-05. The solubility (mole fraction) (in acetone, 318.15 K) was 3.98e-05, the solubility (mole fraction) (in acetone, 323.15 K) was 4.25e-05 and the solubility (mole fraction) (in acetonitrile, 278.15 K) was 6.51e-06. It also gave a solubility (mole fraction) (in acetonitrile, 283.15 K) of 6.98e-06, a solubility (mole fraction) (in acetonitrile, 288.15 K) of 7.47e-06 and a solubility (mole fraction) (in acetonitrile, 293.15 K) of 8.03e-06. It also gave a solubility (mole fraction) (in acetonitrile, 298.15 K) of 8.68e-06, a solubility (mole fraction) (in acetonitrile, 303.15 K) of 9.36e-06 and a solubility (mole fraction) (in acetonitrile, 308.15 K) of 1.01e-05. The solubility (mole fraction) (in acetonitrile, 313.15 K) was 1.1e-05, the solubility (mole fraction) (in acetonitrile, 318.15 K) was 1.2e-05 and the solubility (mole fraction) (in acetonitrile, 323.15 K) was 1.3e-05. The solubility (mole fraction) (in chloroform, 278.15 K) was 2.88e-06, the solubility (mole fraction) (in chloroform, 283.15 K) was 2.99e-06 and the solubility (mole fraction) (in chloroform, 288.15 K) was 3.11e-06. It also gave a solubility (mole fraction) (in chloroform, 293.15 K) of 3.29e-06, a solubility (mole fraction) (in chloroform, 298.15 K) of 3.48e-06 and a solubility (mole fraction) (in chloroform, 303.15 K) of 3.62e-06. The solubility (mole fraction) (in chloroform, 308.15 K) was 3.88e-06, the solubility (mole fraction) (in chloroform, 313.15 K) was 4.07e-06 and the solubility (mole fraction) (in chloroform, 318.15 K) was 4.34e-06. It also gave a solubility (mole fraction) (in chloroform, 323.15 K) of 4.61e-06, a solubility (mole fraction) (in ethanol, 278.15 K) of 1.17e-05 and a solubility (mole fraction) (in ethanol, 283.15 K) of 1.25e-05. For the same compound, the solubility (mole fraction) (in ethanol, 288.15 K) was 1.35e-05, the solubility (mole fraction) (in ethanol, 293.15 K) was 1.47e-05 and the solubility (mole fraction) (in ethanol, 298.15 K) was 1.6e-05. For the same compound, the solubility (mole fraction) (in ethanol, 303.15 K) was 1.73e-05, the solubility (mole fraction) (in ethanol, 308.15 K) was 1.86e-05 and the solubility (mole fraction) (in ethanol, 313.15 K) was 2.03e-05. The solubility (mole fraction) (in ethanol, 318.15 K) was 2.22e-05, the solubility (mole fraction) (in ethanol, 323.15 K) was 2.41e-05 and the solubility (mole fraction) (in ethyl acetate, 278.15 K) was 3.44e-05. The solubility (mole fraction) (in ethyl acetate, 283.15 K) was 3.64e-05, the solubility (mole fraction) (in ethyl acetate, 288.15 K) was 3.85e-05 and the solubility (mole fraction) (in ethyl acetate, 293.15 K) was 4.09e-05. For the same compound, the solubility (mole fraction) (in ethyl acetate, 298.15 K) was 4.32e-05, the solubility (mole fraction) (in ethyl acetate, 303.15 K) was 4.58e-05 and the solubility (mole fraction) (in ethyl acetate, 308.15 K) was 4.85e-05. It also gave a solubility (mole fraction) (in ethyl acetate, 313.15 K) of 5.13e-05, a solubility (mole fraction) (in ethyl acetate, 318.15 K) of 5.43e-05 and a solubility (mole fraction) (in ethyl acetate, 323.15 K) of 5.76e-05. The solubility (mole fraction) (in isopropanol, 278.15 K) was 2.15e-05, the solubility (mole fraction) (in isopropanol, 283.15 K) was 2.27e-05 and the solubility (mole fraction) (in isopropanol, 288.15 K) was 2.41e-05. The solubility (mole fraction) (in isopropanol, 293.15 K) was 2.56e-05, the solubility (mole fraction) (in isopropanol, 298.15 K) was 2.71e-05 and the solubility (mole fraction) (in isopropanol, 303.15 K) was 2.88e-05. For the same compound, the solubility (mole fraction) (in isopropanol, 308.15 K) was 3.1e-05, the solubility (mole fraction) (in isopropanol, 313.15 K) was 3.34e-05 and the solubility (mole fraction) (in isopropanol, 318.15 K) was 3.58e-05. It also gave a solubility (mole fraction) (in isopropanol, 323.15 K) of 3.88e-05, a solubility (mole fraction) (in methanol, 278.15 K) of 8.95e-06 and a solubility (mole fraction) (in methanol, 283.15 K) of 9.76e-06. It also gave a solubility (mole fraction) (in methanol, 288.15 K) of 1.05e-05, a solubility (mole fraction) (in methanol, 293.15 K) of 1.17e-05 and a solubility (mole fraction) (in methanol, 298.15 K) of 1.27e-05. For the same compound, the solubility (mole fraction) (in methanol, 303.15 K) was 1.38e-05, the solubility (mole fraction) (in methanol, 308.15 K) was 1.53e-05 and the solubility (mole fraction) (in methanol, 313.15 K) was 1.67e-05. It also gave a solubility (mole fraction) (in methanol, 318.15 K) of 1.83e-05, a solubility (mole fraction) (in methanol, 323.15 K) of 1.99e-05 and a solubility (mole fraction) (in n-butanol, 278.15 K) of 2.78e-05. It also gave a solubility (mole fraction) (in n-butanol, 283.15 K) of 2.9e-05, a solubility (mole fraction) (in n-butanol, 288.15 K) of 3.04e-05 and a solubility (mole fraction) (in n-butanol, 293.15 K) of 3.2e-05. For the same compound, the solubility (mole fraction) (in n-butanol, 298.15 K) was 3.39e-05, the solubility (mole fraction) (in n-butanol, 303.15 K) was 3.6e-05 and the solubility (mole fraction) (in n-butanol, 308.15 K) was 3.83e-05. For the same compound, the solubility (mole fraction) (in n-butanol, 313.15 K) was 4.09e-05, the solubility (mole fraction) (in n-butanol, 318.15 K) was 4.34e-05 and the solubility (mole fraction) (in n-butanol, 323.15 K) was 4.65e-05. It also gave a solubility (mole fraction) (in n-propanol, 278.15 K) of 1.45e-05, a solubility (mole fraction) (in n-propanol, 283.15 K) of 1.54e-05 and a solubility (mole fraction) (in n-propanol, 288.15 K) of 1.65e-05. The solubility (mole fraction) (in n-propanol, 293.15 K) was 1.8e-05, the solubility (mole fraction) (in n-propanol, 298.15 K) was 1.93e-05 and the solubility (mole fraction) (in n-propanol, 303.15 K) was 2.08e-05. For the same compound, the solubility (mole fraction) (in n-propanol, 308.15 K) was 2.24e-05, the solubility (mole fraction) (in n-propanol, 313.15 K) was 2.42e-05 and the solubility (mole fraction) (in n-propanol, 318.15 K) was 2.62e-05. For the same compound, the solubility (mole fraction) (in n-propanol, 323.15 K) was 2.85e-05.
